The target of the first experiment is MN/CA IX (Homo sapiens, UniProt Q16790). The experiment in a line: Cell adhesion assay on immobilized purified MN/CA IX (Example 2). Type of experiment: cell-based.
Settings: not given
On the procedure: The series of oligopeptides were tested by the cell adhesion assay procedure essentially as described above in Example 1. The synthetic oligopeptides were immobilized on hydrophobic plastic surfaces to see if they would mediate the attachment, spreading and growth of cells. Also investigated were whether the oligopeptides or antibodies inhibited attachment of cells (NIH3T3, HeLa and CGL1) to purified MN protein coated onto such plastic surfaces. The MN protein was affinity purified on agarose covalently linked to sulfonamide, as the MN protein encompasses a CA domain.
Cell adhesion assay. The conditions of the assay are basically as described in Example 1. Briefly, 1 μg/ml of purified MN/CA IX in 50 mM mono/bicarbonate buffer, pH 9.2, was adsorbed in 30 μl drops on the bottom of bacteriological 5 cm Petri dishes for 1.5 hr. Then the drops were removed by aspiration and the dishes were 3× rinsed with PBS and blocked with 50% FCS in culture medium for 30 min. There were two variants of the test. In the first one, the whole bottom of the Petri dish was blocked with 50% FCS, and the dishes were seeded with 5 ml of cell suspension (10^5 cells/ml). After overnight incubation, the cultures were rinsed with PBS, fixed and stained. In the other variant, only the area of adsorbed MN/CA IX was blocked and on top of MN/CA IX dots were added 30 μl drops of cell suspension in growth medium, containing added oligopeptides (or control without peptides). After incubation, rinsing and fixation, the cultures were stained with 0.5% Trypan blue in 50 mM Tris buffer pH 8.5 for 1 h, rinsed with water and dried. Stained areas of attached cells were extracted with 10% acetic acid, the extracts transferred to 96-well plates and absorbance was measured at 630 nm on microplate reader.
AITFNAQYA [SEQ ID NO: 138]: the “activity of phage-display nonapeptides in cell adhesion inhibition” value (from here on “activity … in cell adhesion inhibition”) is given as “highest activity”.

For AKKMKRRKA [SEQ ID NO: 137], the “activity … in cell adhesion inhibition” value is reported as “less active”.

As to ASASAPVSA [SEQ ID NO: 139], the “activity … in cell adhesion inhibition” value is “marginally positive only in ELISA”.

For AGQTRSPLA [SEQ ID NO: 140], the “activity … in cell adhesion inhibition” value is “inactive”.

In the next experiment the test system is Rat2TK- cells and C33 human cervical carcinoma cells transfected with pMN-HSVtk. The experiment in a line: GVC sensitivity of pMN-HSVtk transfectants. Type of experiment: cell-based. Conditions: in vitro, even in low concentrations. How it is done:
A plasmid construct in which HSVtk was cloned downstream of the MN promoter region Bd3, containing both proximal and distant regulatory elements of MN, was prepared. That plasmid pMN-HSVtk was transfected to Rat2TK-cells and C33 human cervical carcinoma cells using calcium phosphate precipitation and lipofection, respectively. Transfectants were tested for expression of HSVtk and GVC sensitivity. Analysis of the transfectants has shown the remarkable cytotoxic in vitro effect of GVC even in low concentrations (up to 95% of cells killed).
On to `Nc1nc(O)c2ncn(COC(CO)CO)c2n1` [GVC, ganciclovir], for which the cells killed entry is “up to 95%”.

The subject of a further experiment is MAb M75. The experiment in a line: Competition ELISA with M75 on adsorbed GST-MN. Type of experiment: binding, mouse.
Settings: not given
How it is done:
ELISA. Purified GST-MN [Zavada et al. (1993), supra] at concentration 10 ng/ml in carbonate buffer pH 9.2 was adsorbed for 3 h in Maxisorb strips (NUNC). After washing and blocking (1 h) with 0.05% Tween 20 in PBS, 50 μl/well of the antibody+antigen mixtures were added. […] These mixtures were adsorbed for 1.5 h, followed by washing with Tween-PBS. Bound antibody was detected by antimouse IgG conjugate with peroxidase (SwAM-Px, SEVAC, Prague), diluted 1:1000. In the color reaction OPD (o-phenylenediamine dihydrochloride, Sigma) 1 mg/ml in 0.1 M citrate buffer pH 5.0 was used. To this H2O2 was added to final concentration 0.03%. This system is balanced so as to allow assay for antigen competing for M75 as well as for peptides binding to the epitope of immobilized GST-MN.
Identification of the epitope recognized by Mab M75. Preliminary mapping of M75 epitope employing partial sequences of extracellular parts of MN/CA9 cDNA expressed from bacterial vectors and tested on Western blots located it in PG region For exact mapping, our strategy was to synthesize partially overlapping oligopeptides of 15-25 aa covering the PG domain and test them in competition ELISA with M75. According to the results, this was followed by a series of 6-12 aa oligopeptides. A major part of the PG domain consists of a 6-fold tandem repeat of 6 aa (aa 61-96) [SEQ ID NO: 97]; 4 repeats are identical (GEEDLP) [SEQ ID NO: 98] and 2 contain 2 aa exchanged (SEEDSP [SEQ ID NO: 141] and REEDPP [SEQ ID NO: 142]).
Take APGEEDLPA [SEQ ID NO: 125]: the “serological activity in competition ELISA with M75” value (from here on “serological activity”) is “minimum serologically active sequence”.

Turning to ALPGEEDA [SEQ ID NO: 135], the “serological activity” value was “none of the following still shorter oligopeptides (6+2aa) competed”.

Take ADLPGEEA [SEQ ID NO: 134]: the “serological activity” value is given as “none of the following still shorter oligopeptides (6+2aa) competed”.

Regarding APGEEDLA [SEQ ID NO: 136], the “serological activity” value is listed as “none of the following still shorter oligopeptides (6+2aa) competed”.

As to “GEEDLPSEEDSPREEDPPGEEDLPGEC [SEQ ID NO: 105, aa 61-85 of the PG region, cysteine added onto the C-end]”, the “fold less active than SEQ ID NOS: 104 and 106 in competition ELISA” value amounted to 1000 ×.

Consider LPGEEDLPGEED [SEQ ID NO: 123], for which the “serological activity” value is “serologically active”.

Turning to AEDLPGEA [SEQ ID NO: 133], the “serological activity” value was “none of the following still shorter oligopeptides (6+2aa) competed”.

Regarding “GGSSGEDDPLGEEDLPSEEDSPC [SEQ ID NO: 104, aa 51-72 of the PG region, cysteine added onto the C-end]”, the “concentration causing 50% inhibition in competition ELISA” value stood at 1 ng/mL.

“EVKPKSEEEGSLKLE [SEQ ID NO: 118, aa 97-111 of the PG region]”: the “serological activity” value was “inactive”.

DLPGEEDLPGEE [SEQ ID NO: 122]: the “serological activity” value was “serologically active”.

Take EEDLPGEEDLPG [SEQ ID NO: 120]: the “serological activity” value is given as “serologically active”.

In the case of PGEEDLPGEEDL [SEQ ID NO: 124], the “serological activity” value is listed as “serologically active”.

On to AGEEDLPA [SEQ ID NO: 131], for which the “serological activity” value is reported as “none of the following still shorter oligopeptides (6+2aa) competed”.

Take GEEDLPGEEDLP [SEQ ID NO: 119]: the “serological activity” value is recorded as “serologically active”.

As to EDLPGEEDLP [SEQ ID NO: 121], the “serological activity” value is on record as “serologically active”.

With “EDPPGEEDLPGEEDLPGEEDLPEVC [SEQ ID NO: 106, aa 75-98 of the PG region, cysteine added onto the C-end]”, the “concentration causing 50% inhibition in competition ELISA” value was 1 ng/mL.

Take AEEDLPGA [SEQ ID NO: 132]: the “serological activity” value was “none of the following still shorter oligopeptides (6+2aa) competed”.

Still in this experiment, the particulars now being: 100 μg/ml.
In the case of AEEDLPGEA [SEQ ID NO: 127], the “competition in ELISA for M75” value is recorded as “negative”.

For ADLPGEEDA [SEQ ID NO. 129], the “competition in ELISA for M75” value is listed as “negative”.

Turning to ALPGEEDLA [SEQ ID NO: 130], the “competition in ELISA for M75” value was “negative”.

As to AEDLPGEEA [SEQ ID NO: 128], the “competition in ELISA for M75” value is “negative”.

Staying with this experiment, now noted: peptides of 7+2 aa.
As to AITFNAQYA [SEQ ID NO: 138], the “activity of phage-display nonapeptides in competition ELISA” value was “highest activity”.

For AKKMKRRKA [SEQ ID NO: 137], the “activity of phage-display nonapeptides in competition ELISA” value is recorded as “less active”.

Take ASASAPVSA [SEQ ID NO: 139]: the “activity of phage-display nonapeptides in competition ELISA” value is listed as “marginally positive”.

Consider AGQTRSPLA [SEQ ID NO: 140], for which the “activity of phage-display nonapeptides in competition ELISA” value is “inactive”.

The next experiment has as its system NIH3T3 cells freshly transformed with the [pGD.MN+MLV] complex. Description: Morphologic transformation of NIH3T3 cells by [pGD.MN+MLV] complex in the presence of acetazolamide. Conditions: 10^−5M, 4 days of incubation.
Take `CC(=O)Nc1nnc(S(N)(=O)=O)s1` [acetazolamide]: the “difference between transformed cells growing in presence or absence of the drug” value is recorded as “No difference”.

Values taken from US7855185B2, “MN gene and protein” (Institute of Virology of the Slovak Academy of Sciences, priority 2001, dated 2010).
